In publication PMC8063935, “Amphipathic Peptide Antibiotics with Potent Activity against Multidrug-Resistant Pathogens” (Pharmaceutics, 2021):
Values after ≈ are worked out from the molar mass of the structure shown. Where a SMILES comes first, the peptide text is derived from it.

What was measured:
MRSA T144 [1] = assay: microbe, parasite or virus in culture; assay type: cell-based, Staphylococcus aureus
Experimental: (§1) The MICs of all drugs were determined by micro-broth dilution method according to CLSI 2018 guidelines. The bacterial suspension used in the experiment was appropriate 1.5 × 10^6 colony-forming units (CFUs) per mL and mixed with the drug solution in a sterilized 96-well microtiter plate (Corning, New York, USA), then incubated at 37 °C for 16–18 h. MIC value was defined as the minimum drug concentration without visible bacteria. Meanwhile, the density of the bacteria at 600 nm was measured, and the corresponding IC50 was calculated using log (inhibitor) vs. response variable slope (four parameters) in Graphpad Prism version 8.3.0 software (San Diego, CA, USA). To assess the role of ROS production in the antibacterial activity of WW307, increasing concentrations of N-acetylcysteine (NAC) from 0 to 5 mM were added in culture medium, followed by MICs test.

S. aureus G16 (RIF^R) = assay: microbe, parasite or virus in culture; assay type: cell-based, Staphylococcus aureus; conditions: S. aureus G16 (RIF^R)
Experimental: as §1

E. coli 1F28 (tet(X4)) = assay: microbe, parasite or virus in culture; assay type: cell-based, Escherichia coli
Experimental: as §1

[2] = system: E. coli B2 (mcr-1 + blaNDM-5); assay: microbe, parasite or virus in culture; assay type: cell-based, Escherichia coli; conditions: E. coli B2 (mcr-1 + blaNDM-5)
Experimental: as §1

E. coli G92 (mcr-1) = assay: microbe, parasite or virus in culture; assay type: cell-based, Escherichia coli; conditions: E. coli G92 (mcr-1)
Experimental: as §1

E. coli C3 (blaNDM-1) = assay: MIC / IC50, micro-broth dilution; assay type: cell-based, Escherichia coli
Experimental: as §1

E. coli CP131 (mcr-3) = assay: MIC / IC50, micro-broth dilution; assay type: cell-based, Escherichia coli; conditions: E. coli CP131 (mcr-3)
Experimental: as §1

E. coli G6 (blaNDM-5) = assay: MIC / IC50, micro-broth dilution; assay type: cell-based, Escherichia coli
Experimental: as §1

[3] = system: A. baumannii C222 (tet(X6)); assay: microbe, parasite or virus in culture; assay type: cell-based, Acinetobacter baumannii; conditions: A. baumannii C222 (tet(X6))
Experimental: as §1

[4] = system: P. cibarius HNCF44W (blaNDM-1 + tet(X6)); assay: MIC / IC50, micro-broth dilution; assay type: cell-based
Experimental: as §1

MRSA T144 [5] = assay: Thermal, pH, salts, serum and protease stability (residual MIC); assay type: cell-based, Staphylococcus aureus
Experimental: (§2) In order to evaluate the influence of ions and serum on the activity of AMPs, 10 mM Na^+, K^+, Mg^2+, 10% Dulbecco’s Modified Eagle Medium (DMEM) and fetal bovine serum (FBS) were added into Mueller-Hinton broth (MHB) culture medium for subsequent MIC tests.
(§3) Drugs were incubated at different temperatures (range from 40 to 121 °C) and pH (range from 2 to 12) for 1 h, then adjust back to original pH, following MIC test to evaluate their residual activity. To evaluate the protease stability, pepsin, trypsin, and papain were mixed with WW307 to achieve a final concentration of 1 mM, and then incubated at 37 °C for 1 h. After incubation, the remaining protease was precipitated using acetonitrile and removed by centrifugation at 3000× g, following for MIC test.

E. coli B2 [6] = assay: as above; assay type: cell-based, Escherichia coli
Experimental: as §2, §3

Sheep RBCs = assay: Hemolysis analysis; assay type: cell-based; conditions: 8% sheep red blood cell suspension, 37 °C, 1 h, released hemoglobin at 576 nm; PBS negative, ddH2O positive control
Experimental: The hemolytic activity on all peptides was evaluated based on previous report. Briefly, fresh Sheep RBCs were washed twice with phosphate buffer (PBS), and then 8% red blood cell suspension was prepared. The increasing concentrations of AMPs and melittin were mixed with 8% red blood cell suspension, respectively, and incubated at 37 °C for 1 h. The sterilized PBS and double-distilled water (ddH2O) were used as blank and positive control, respectively. Afterwards, the supernatant was centrifuged to measure the absorption of released hemoglobin at 576 nm by an Infinite M200 Microplate reader (Tecan, Männedorf, Switzerland). The corresponding hemolysis rate was calculated.

MRSA T144 [7] = assay: Thermal, pH, salts, serum and protease stability (residual MIC); assay type: cell-based, Staphylococcus aureus; conditions: protease precipitated with acetonitrile, then MIC test
E. coli B2 [8] = assay: as above; assay type: cell-based, Escherichia coli; conditions: protease precipitated with acetonitrile, then MIC test
[9] = OD600 of micro-broth dilution plates, four-parameter fit
[10] = micro-broth dilution, CLSI 2018, ~1.5 × 10^6 CFUs per mL, 37 °C, 16–18 h
[11] = 10% fetal bovine serum (FBS) added into MHB
[12] = WW307 incubated at 40 °C for 1 h before MIC test
[13] = WW307 incubated at 60 °C for 1 h before MIC test
[14] = WW307 incubated at 80 °C for 1 h before MIC test
[15] = WW307 incubated at 100 °C for 1 h before MIC test
[16] = WW307 incubated at 121 °C for 1 h before MIC test
[17] = WW307 incubated at pH 2 for 1 h, adjusted back to original pH, then MIC test
[18] = WW307 incubated at pH 4 for 1 h, adjusted back to original pH, then MIC test
[19] = WW307 incubated at pH 6 for 1 h, adjusted back to original pH, then MIC test
[20] = WW307 incubated at pH 8 for 1 h, adjusted back to original pH, then MIC test
[21] = WW307 incubated at pH 10 for 1 h, adjusted back to original pH, then MIC test
[22] = WW307 incubated at pH 12 for 1 h, adjusted back to original pH, then MIC test
[23] = WW307 incubated with trypsin (1 mg/mL) at 37 °C for 1 h

`CC(C)[C@H](NC(=O)[C@H](Cc1c[nH]c2ccccc12)NC(=O)[C@H](Cc1c[nH]c2ccccc12)NC(=O)[C@H](Cc1c[nH]c2ccccc12)NC(=O)[C@H](Cc1c[nH]c2ccccc12)NC(=O)[C@H](CCCNC(=N)N)NC(=O)[C@H](CCCNC(=N)N)NC(=O)[C@@H](N)CCCNC(=N)N)C(N)=O` [WW307] (H-RRRWWWWV-NH2) showed an IC50 (MRSA T144 [1]; [9]) of 1.03 µg/mL (≈ 0.775 µM), an MIC (MRSA T144 [1]; [10]) of 4 µg/mL (≈ 3.01 µM) and an IC50 (S. aureus G16 (RIF^R); [9]) of 0.52 µg/mL (≈ 0.391 µM). The MIC (S. aureus G16 (RIF^R); [10]) was 1 µg/mL (≈ 0.752 µM), the IC50 (E. coli 1F28 (tet(X4)); [9]) was 2.13 µg/mL (≈ 1.6 µM) and the MIC (E. coli 1F28 (tet(X4)); [10]) was 4 µg/mL (≈ 3.01 µM). For the same compound, the IC50 [2, 9] was 4.18 µg/mL, the MIC [2, 10] was 4 µg/mL and the IC50 (E. coli G92 (mcr-1); [9]) was 2.18 µg/mL (≈ 1.64 µM). The MIC (E. coli G92 (mcr-1); [10]) was 4 µg/mL (≈ 3.01 µM), the IC50 (E. coli C3 (blaNDM-1); [9]) was 1.82 µg/mL (≈ 1.37 µM) and the MIC (E. coli C3 (blaNDM-1); [10]) was 4 µg/mL (≈ 3.01 µM). The IC50 (E. coli CP131 (mcr-3); [9]) was 2.07 µg/mL (≈ 1.56 µM), the MIC (E. coli CP131 (mcr-3); [10]) was 4 µg/mL (≈ 3.01 µM) and the IC50 (E. coli G6 (blaNDM-5); [9]) was 2.25 µg/mL (≈ 1.69 µM). It also gave an MIC (E. coli G6 (blaNDM-5); [10]) of 8 µg/mL (≈ 6.02 µM), an IC50 [3, 9] of 2.15 µg/mL (≈ 1.62 µM) and an MIC [3, 10] of 4 µg/mL (≈ 3.01 µM). The IC50 [4, 9] was 2.21 µg/mL (≈ 1.66 µM), the MIC [4, 10] was 2 µg/mL (≈ 1.5 µM) and the “MIC with K^+” value (MRSA T144 [5]; 10 mM K^+ added into MHB) was 4 µg/mL. For the same compound, the “MIC with Mg^2+” value (MRSA T144 [5]; 10 mM Mg^2+ added into MHB) was 16 µg/mL, the “MIC with Na^+” value (MRSA T144 [5]; 10 mM Na^+ added into MHB) was 4 µg/mL and the “MIC with DMEM (10%)” value (MRSA T144 [5]; 10% DMEM added into MHB) was 8 µg/mL. The “MIC with Serum (10%)” value (MRSA T144 [5]; [11]) was 8 µg/mL, the “MIC after 40 °C” value (MRSA T144 [5]; [12]) was 4 µg/mL and the “MIC after 60 °C” value (MRSA T144 [5]; [13]) was 4 µg/mL. For the same compound, the “MIC after 80 °C” value (MRSA T144 [5]; [14]) was 4 µg/mL, the “MIC after 100 °C” value (MRSA T144 [5]; [15]) was 4 µg/mL and the “MIC after 121 °C” value (MRSA T144 [5]; [16]) was 4 µg/mL. The “MIC after pH 2” value (MRSA T144 [5]; [17]) was 4 μg/mL, the “MIC after pH 4” value (MRSA T144 [5]; [18]) was 4 μg/mL and the “MIC after pH 6” value (MRSA T144 [5]; [19]) was 4 μg/mL. The “MIC after pH 8” value (MRSA T144 [5]; [20]) was 4 μg/mL, the “MIC after pH 10” value (MRSA T144 [5]; [21]) was 4 μg/mL and the “MIC after pH 12” value (MRSA T144 [5]; [22]) was 4 μg/mL. For the same compound, the MIC after papain (MRSA T144 [5]; WW307 incubated with papain (1 mg/mL) at 37 °C for 1 h, protease precipitated with acetonitrile, then MIC test) was >128 µg/mL, the “MIC, Control” value (MRSA T144 [5]; untreated WW307) was 4 µg/mL and the “MIC with K^+” value (E. coli B2 [6]; 10 mM K^+ added into MHB) was 4 µg/mL. The “MIC with Mg^2+” value (E. coli B2 [6]; 10 mM Mg^2+ added into MHB) was 16 µg/mL, the “MIC with Na^+” value (E. coli B2 [6]; 10 mM Na^+ added into MHB) was 4 µg/mL and the “MIC with DMEM (10%)” value (E. coli B2 [6]; 10% DMEM added into MHB) was 8 µg/mL. For the same compound, the “MIC with Serum (10%)” value (E. coli B2 [6]; [11]) was 8 µg/mL, the “MIC after 40 °C” value (E. coli B2 [6]; [12]) was 4 µg/mL and the “MIC after 60 °C” value (E. coli B2 [6]; [13]) was 4 µg/mL. The “MIC after 80 °C” value (E. coli B2 [6]; [14]) was 4 µg/mL, the “MIC after 100 °C” value (E. coli B2 [6]; [15]) was 4 µg/mL and the “MIC after 121 °C” value (E. coli B2 [6]; [16]) was 4 µg/mL. For the same compound, the “MIC after pH 2” value (E. coli B2 [6]; [17]) was 4 μg/mL, the “MIC after pH 4” value (E. coli B2 [6]; [18]) was 4 μg/mL and the “MIC after pH 6” value (E. coli B2 [6]; [19]) was 4 μg/mL. The “MIC after pH 8” value (E. coli B2 [6]; [20]) was 4 μg/mL, the “MIC after pH 10” value (E. coli B2 [6]; [21]) was 4 μg/mL and the “MIC after pH 12” value (E. coli B2 [6]; [22]) was 8 μg/mL. For the same compound, the MIC after pepsin (E. coli B2 [6]; WW307 incubated with pepsin (1 mg/mL) at 37 °C for 1 h, protease precipitated with acetonitrile, then MIC test) was 4 µg/mL, the “MIC, Control” value (E. coli B2 [6]; untreated WW307) was 4 µg/mL and the “HL50 (peptide concentration that causes 50% hemolysis)” value (Sheep RBCs) was > 128 µg/mL. For the same compound, the MIC after pepsin (MRSA T144 [7]; WW307 incubated with pepsin (1 mg/mL) at 37 °C for 1 h) was 4 µg/mL, the MIC after trypsin (MRSA T144 [7]; [23]) was >128 µg/mL and the MIC after papain (E. coli B2 [8]; WW307 incubated with papain (1 mg/mL) at 37 °C for 1 h) was >128 µg/mL. For the same compound, the MIC after trypsin (E. coli B2 [8]; [23]) was >128 µg/mL.
